ChEMBL document CHEMBL4507300 (2021)

Key:
[1] = tested on: Tyrosine-protein kinase ABL1 (Homo sapiens), P00519 [Q252H]; conditions: Compound concentration 1000.0 nM
[2] = biological target: Mitogen-activated protein kinase kinase kinase 6 (Homo sapiens) (UniProt O95382); conditions: Compound concentration 1000.0 nM
[3] = tested on: Serine/threonine-protein kinase B-raf (Homo sapiens), P15056 [V600E]; conditions: Compound concentration 1000.0 nM
[4] = biological target: Peripheral plasma membrane protein CASK (Homo sapiens) (UniProt O14936); conditions: Compound concentration 1000.0 nM
[5] = biological target: Dual specificity protein kinase CLK1 (Homo sapiens) (UniProt P49759); conditions: Compound concentration 1000.0 nM
[6] = biological target: Dual specificity protein kinase CLK4 (Homo sapiens) (UniProt Q9HAZ1); conditions: Compound concentration 1000.0 nM
[7] = biological target: Casein kinase I isoform alpha-like (Homo sapiens) (UniProt Q8N752); conditions: Compound concentration 1000.0 nM
[8] = biological target: Myotonin-protein kinase (Homo sapiens) (UniProt Q09013); conditions: Compound concentration 1000.0 nM
[9] = biological target: Dual specificity tyrosine-phosphorylation-regulated kinase 2 (Homo sapiens) (UniProt Q92630); conditions: Compound concentration 1000.0 nM
[10] = tested on: Epidermal growth factor receptor (Homo sapiens), P00533 [UNDEFINED MUTATION]; conditions: Compound concentration 1000.0 nM
[11] = tested on: Epidermal growth factor receptor (Homo sapiens), P00533 [G719C]; conditions: Compound concentration 1000.0 nM
[12] = biological target: Ephrin type-A receptor 1 (Homo sapiens) (UniProt P21709); conditions: Compound concentration 1000.0 nM
[13] = tested on: Receptor-type tyrosine-protein kinase FLT3 (Homo sapiens), P36888 [D835Y]; conditions: Compound concentration 1000.0 nM
[14] = biological target: Inhibitor of nuclear factor kappa-B kinase subunit epsilon (Homo sapiens) (UniProt Q14164); conditions: Compound concentration 1000.0 nM
[15] = biological target: Tyrosine-protein kinase JAK1 (Homo sapiens) (UniProt P23458); conditions: Compound concentration 1000.0 nM
[16] = biological target: Mitogen-activated protein kinase 10 (Homo sapiens) (UniProt P53779); conditions: Compound concentration 1000.0 nM
[17] = tested on: Mast/stem cell growth factor receptor Kit (Homo sapiens), P10721 [A829P]; conditions: Compound concentration 1000.0 nM
[18] = biological target: Serine/threonine-protein kinase LATS2 (Homo sapiens) (UniProt Q9NRM7); conditions: Compound concentration 1000.0 nM
[19] = biological target: Mitogen-activated protein kinase kinase kinase kinase 2 (Homo sapiens) (UniProt Q12851); conditions: Compound concentration 1000.0 nM
[20] = biological target: Mitogen-activated protein kinase kinase kinase kinase 4 (Homo sapiens) (UniProt O95819); conditions: Compound concentration 1000.0 nM
[21] = biological target: MAP/microtubule affinity-regulating kinase 3 (Homo sapiens) (UniProt P27448); conditions: Compound concentration 1000.0 nM
[22] = biological target: Misshapen-like kinase 1 (Homo sapiens) (UniProt Q8N4C8); conditions: Compound concentration 1000.0 nM
[23] = biological target: Mitogen-activated protein kinase kinase kinase 10 (Homo sapiens) (UniProt Q02779); conditions: Compound concentration 1000.0 nM
[24] = biological target: Mitogen-activated protein kinase 12 (Homo sapiens) (UniProt P53778); conditions: Compound concentration 1000.0 nM
[25] = biological target: Serine/threonine-protein kinase PAK 5 (Homo sapiens) (UniProt Q9P286); conditions: Compound concentration 1000.0 nM
[26] = biological target: Phosphatidylinositol 4,5-bisphosphate 3-kinase catalytic subunit delta isoform (Homo sapiens) (UniProt O00329); conditions: Compound concentration 1000.0 nM
[27] = biological target: Serine/threonine-protein kinase PknB (Mycobacterium tuberculosis) (UniProt P9WI81); conditions: Compound concentration 1000.0 nM
[28] = biological target: Serine/threonine-protein kinase PLK1 (Homo sapiens) (UniProt P53350); conditions: Compound concentration 1000.0 nM
[29] = biological target: Serine/threonine-protein kinase PLK4 (Homo sapiens) (UniProt O00444); conditions: Compound concentration 1000.0 nM
[30] = biological target: Receptor-interacting serine/threonine-protein kinase 1 (Homo sapiens) (UniProt Q13546); conditions: Compound concentration 1000.0 nM
[31] = biological target: Ribosomal protein S6 kinase alpha-4 (Homo sapiens) (UniProt O75676); conditions: Compound concentration 1000.0 nM
[32] = biological target: Ribosomal protein S6 kinase alpha-2 (Homo sapiens) (UniProt Q15349); conditions: Compound concentration 1000.0 nM
[33] = biological target: Serine/threonine-protein kinase SIK1 (Homo sapiens) (UniProt P57059); conditions: Compound concentration 1000.0 nM
[34] = biological target: Serine/threonine-protein kinase tousled-like 2 (Homo sapiens) (UniProt Q86UE8); conditions: Compound concentration 1000.0 nM
[35] = biological target: BDNF/NT-3 growth factors receptor (Homo sapiens) (UniProt Q16620); conditions: Compound concentration 1000.0 nM
[36] = biological target: Testis-specific serine/threonine-protein kinase 1 (Homo sapiens) (UniProt Q9BXA7); conditions: Compound concentration 1000.0 nM
[37] = biological target: Testis-specific serine/threonine-protein kinase 3 (Homo sapiens) (UniProt Q96PN8); conditions: Compound concentration 1000.0 nM
[38] = biological target: Phosphatidylinositol 3-kinase catalytic subunit type 3 (Homo sapiens) (UniProt Q8NEB9); conditions: Compound concentration 1000.0 nM
[39] = biological target: Serine/threonine-protein kinase 32C (Homo sapiens) (UniProt Q86UX6); conditions: Compound concentration 1000.0 nM
[40] = biological target: 5-hydroxytryptamine receptor 1E (Homo sapiens) (UniProt P28566); conditions: Compound concentration 10.0 uM
[41] = biological target: D(4) dopamine receptor (Homo sapiens) (UniProt P21917); conditions: Compound concentration 10.0 uM
[42] = biological target: Sodium-dependent dopamine transporter (Homo sapiens) (UniProt Q01959); conditions: Compound concentration 10.0 uM
[43] = biological target: Histamine H2 receptor (Homo sapiens) (UniProt P25021); conditions: Compound concentration 10.0 uM
[44] = biological target: Histamine H4 receptor (Homo sapiens) (UniProt Q9H3N8); conditions: Compound concentration 10.0 uM
[45] = biological target: Muscarinic acetylcholine receptor M1 (Homo sapiens) (UniProt P11229); conditions: Compound concentration 10.0 uM

Mitogen-activated protein kinase 12 (Homo sapiens), sequence (P53778 whole entry): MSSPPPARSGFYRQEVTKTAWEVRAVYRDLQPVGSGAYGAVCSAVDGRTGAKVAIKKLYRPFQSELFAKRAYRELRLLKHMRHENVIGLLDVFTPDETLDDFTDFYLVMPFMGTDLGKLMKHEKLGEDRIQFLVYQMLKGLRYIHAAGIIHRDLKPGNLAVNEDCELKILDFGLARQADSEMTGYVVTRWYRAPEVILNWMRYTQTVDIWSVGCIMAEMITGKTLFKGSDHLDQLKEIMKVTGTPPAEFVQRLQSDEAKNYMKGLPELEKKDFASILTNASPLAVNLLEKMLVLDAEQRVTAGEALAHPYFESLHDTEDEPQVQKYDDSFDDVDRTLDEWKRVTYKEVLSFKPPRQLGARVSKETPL
Receptor-interacting serine/threonine-protein kinase 1 (Homo sapiens), sequence (Q13546 whole entry): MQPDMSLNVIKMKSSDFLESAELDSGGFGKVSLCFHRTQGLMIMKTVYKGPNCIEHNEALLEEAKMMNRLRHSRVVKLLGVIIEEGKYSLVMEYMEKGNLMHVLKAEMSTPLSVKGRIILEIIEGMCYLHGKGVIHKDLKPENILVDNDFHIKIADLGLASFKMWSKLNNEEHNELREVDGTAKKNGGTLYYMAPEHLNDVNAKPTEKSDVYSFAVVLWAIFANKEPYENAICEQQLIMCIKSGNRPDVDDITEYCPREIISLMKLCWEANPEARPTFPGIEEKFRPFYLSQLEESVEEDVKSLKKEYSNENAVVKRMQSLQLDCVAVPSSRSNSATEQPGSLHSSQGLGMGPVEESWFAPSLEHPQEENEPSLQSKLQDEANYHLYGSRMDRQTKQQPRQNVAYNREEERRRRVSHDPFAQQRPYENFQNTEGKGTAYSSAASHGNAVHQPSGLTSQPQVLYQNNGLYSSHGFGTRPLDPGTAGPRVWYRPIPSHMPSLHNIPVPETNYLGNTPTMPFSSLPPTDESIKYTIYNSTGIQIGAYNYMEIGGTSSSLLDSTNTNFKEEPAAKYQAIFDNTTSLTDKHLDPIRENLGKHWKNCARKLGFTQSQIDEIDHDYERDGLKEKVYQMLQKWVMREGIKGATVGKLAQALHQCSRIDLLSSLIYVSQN
Phosphatidylinositol 3-kinase catalytic subunit type 3 (Homo sapiens), sequence (Q8NEB9 whole entry): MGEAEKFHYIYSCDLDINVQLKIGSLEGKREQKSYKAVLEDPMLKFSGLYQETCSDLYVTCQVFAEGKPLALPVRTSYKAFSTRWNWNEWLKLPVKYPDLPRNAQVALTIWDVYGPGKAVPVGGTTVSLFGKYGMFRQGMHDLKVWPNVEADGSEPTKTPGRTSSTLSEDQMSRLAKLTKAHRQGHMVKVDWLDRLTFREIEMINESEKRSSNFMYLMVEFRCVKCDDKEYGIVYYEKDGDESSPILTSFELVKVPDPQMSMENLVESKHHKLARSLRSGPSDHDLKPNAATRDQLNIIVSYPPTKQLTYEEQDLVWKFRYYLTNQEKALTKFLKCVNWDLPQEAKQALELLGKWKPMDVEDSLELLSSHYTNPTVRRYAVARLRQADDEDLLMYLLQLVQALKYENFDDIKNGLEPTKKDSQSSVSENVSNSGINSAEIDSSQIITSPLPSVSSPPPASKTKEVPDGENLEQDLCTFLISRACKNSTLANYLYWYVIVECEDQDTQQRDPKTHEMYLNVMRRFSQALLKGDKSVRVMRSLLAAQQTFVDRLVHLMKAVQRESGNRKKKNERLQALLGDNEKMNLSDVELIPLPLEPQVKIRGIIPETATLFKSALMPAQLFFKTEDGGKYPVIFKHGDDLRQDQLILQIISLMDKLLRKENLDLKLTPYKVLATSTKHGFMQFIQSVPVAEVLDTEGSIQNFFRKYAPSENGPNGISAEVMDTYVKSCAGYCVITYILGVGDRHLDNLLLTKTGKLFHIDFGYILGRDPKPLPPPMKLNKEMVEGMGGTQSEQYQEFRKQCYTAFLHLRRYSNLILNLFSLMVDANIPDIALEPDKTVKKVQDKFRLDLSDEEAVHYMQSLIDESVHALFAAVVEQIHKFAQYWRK
Dual specificity protein kinase CLK4 (Homo sapiens), sequence (Q9HAZ1 whole entry, looked up, canonical isoform): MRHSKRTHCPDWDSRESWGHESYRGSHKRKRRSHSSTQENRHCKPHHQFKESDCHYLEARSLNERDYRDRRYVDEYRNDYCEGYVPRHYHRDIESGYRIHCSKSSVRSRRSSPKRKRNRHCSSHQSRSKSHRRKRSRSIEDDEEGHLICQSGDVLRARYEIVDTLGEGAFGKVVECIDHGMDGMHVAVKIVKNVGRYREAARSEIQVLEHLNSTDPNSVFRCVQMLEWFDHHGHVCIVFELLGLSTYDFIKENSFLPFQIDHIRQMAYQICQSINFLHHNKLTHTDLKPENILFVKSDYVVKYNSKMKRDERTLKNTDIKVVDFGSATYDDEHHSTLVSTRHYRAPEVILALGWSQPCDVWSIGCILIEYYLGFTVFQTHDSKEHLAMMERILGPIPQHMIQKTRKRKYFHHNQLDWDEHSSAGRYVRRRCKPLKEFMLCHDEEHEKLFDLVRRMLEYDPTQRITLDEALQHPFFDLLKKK
Serine/threonine-protein kinase PknB (Mycobacterium tuberculosis), sequence (P9WI81 whole entry): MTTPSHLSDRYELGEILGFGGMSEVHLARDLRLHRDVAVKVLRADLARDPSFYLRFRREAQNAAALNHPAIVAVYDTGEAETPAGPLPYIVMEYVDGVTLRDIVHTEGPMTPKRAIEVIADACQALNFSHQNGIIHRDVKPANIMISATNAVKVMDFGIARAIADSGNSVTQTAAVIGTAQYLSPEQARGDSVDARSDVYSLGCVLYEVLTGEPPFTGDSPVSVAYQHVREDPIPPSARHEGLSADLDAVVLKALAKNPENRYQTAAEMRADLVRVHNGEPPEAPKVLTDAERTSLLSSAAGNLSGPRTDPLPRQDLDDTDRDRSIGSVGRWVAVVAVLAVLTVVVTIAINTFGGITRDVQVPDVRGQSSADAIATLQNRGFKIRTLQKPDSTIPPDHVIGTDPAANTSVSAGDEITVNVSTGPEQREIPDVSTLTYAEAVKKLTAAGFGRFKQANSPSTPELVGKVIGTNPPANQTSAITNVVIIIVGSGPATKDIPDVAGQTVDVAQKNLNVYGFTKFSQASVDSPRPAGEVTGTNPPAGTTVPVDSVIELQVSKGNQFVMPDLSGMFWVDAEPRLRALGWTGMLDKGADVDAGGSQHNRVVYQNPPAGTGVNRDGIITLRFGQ
Ribosomal protein S6 kinase alpha-2 (Homo sapiens), sequence (Q15349 whole entry): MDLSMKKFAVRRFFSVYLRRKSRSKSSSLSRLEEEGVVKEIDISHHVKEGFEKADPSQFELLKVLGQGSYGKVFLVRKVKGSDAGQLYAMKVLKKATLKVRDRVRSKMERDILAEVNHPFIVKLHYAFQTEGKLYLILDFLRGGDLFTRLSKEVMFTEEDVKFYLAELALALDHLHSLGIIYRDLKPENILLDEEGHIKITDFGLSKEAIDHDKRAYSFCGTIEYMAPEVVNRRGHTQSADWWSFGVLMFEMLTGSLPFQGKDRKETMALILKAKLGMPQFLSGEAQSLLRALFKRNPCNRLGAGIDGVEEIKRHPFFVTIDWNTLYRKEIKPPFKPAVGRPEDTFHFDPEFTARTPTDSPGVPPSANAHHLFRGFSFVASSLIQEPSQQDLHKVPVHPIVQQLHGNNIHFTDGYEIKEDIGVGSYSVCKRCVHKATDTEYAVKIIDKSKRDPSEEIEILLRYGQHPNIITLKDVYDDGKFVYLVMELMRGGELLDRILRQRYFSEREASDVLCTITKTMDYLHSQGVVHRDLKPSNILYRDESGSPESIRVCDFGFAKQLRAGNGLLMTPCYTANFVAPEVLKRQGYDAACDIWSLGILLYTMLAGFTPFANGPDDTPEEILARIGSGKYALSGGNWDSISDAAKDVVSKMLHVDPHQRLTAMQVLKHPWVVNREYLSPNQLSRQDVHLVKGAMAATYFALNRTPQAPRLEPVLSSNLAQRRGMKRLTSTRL
Serine/threonine-protein kinase B-raf (Homo sapiens), P15056 [V600E], sequence (P15056 whole entry V600E): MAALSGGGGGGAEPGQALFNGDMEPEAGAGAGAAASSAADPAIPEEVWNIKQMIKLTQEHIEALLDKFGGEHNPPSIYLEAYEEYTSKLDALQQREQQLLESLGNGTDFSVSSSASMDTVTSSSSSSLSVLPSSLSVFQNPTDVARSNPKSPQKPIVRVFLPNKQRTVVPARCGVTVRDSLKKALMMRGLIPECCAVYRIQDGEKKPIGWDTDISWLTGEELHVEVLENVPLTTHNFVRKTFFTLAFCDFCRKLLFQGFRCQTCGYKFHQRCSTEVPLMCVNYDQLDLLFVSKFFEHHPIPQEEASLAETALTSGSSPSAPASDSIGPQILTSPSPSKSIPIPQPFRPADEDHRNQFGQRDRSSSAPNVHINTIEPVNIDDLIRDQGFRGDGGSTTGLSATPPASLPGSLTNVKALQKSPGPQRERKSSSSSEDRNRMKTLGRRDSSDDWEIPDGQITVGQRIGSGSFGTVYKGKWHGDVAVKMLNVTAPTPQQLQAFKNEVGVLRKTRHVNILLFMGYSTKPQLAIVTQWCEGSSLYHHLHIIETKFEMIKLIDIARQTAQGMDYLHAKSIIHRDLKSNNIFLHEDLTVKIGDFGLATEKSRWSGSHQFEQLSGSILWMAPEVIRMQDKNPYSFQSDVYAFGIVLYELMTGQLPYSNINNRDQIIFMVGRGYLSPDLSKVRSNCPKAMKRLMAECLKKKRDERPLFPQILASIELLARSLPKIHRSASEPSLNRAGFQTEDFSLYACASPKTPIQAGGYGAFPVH
Casein kinase I isoform alpha-like (Homo sapiens), sequence (Q8N752 whole entry, canonical isoform): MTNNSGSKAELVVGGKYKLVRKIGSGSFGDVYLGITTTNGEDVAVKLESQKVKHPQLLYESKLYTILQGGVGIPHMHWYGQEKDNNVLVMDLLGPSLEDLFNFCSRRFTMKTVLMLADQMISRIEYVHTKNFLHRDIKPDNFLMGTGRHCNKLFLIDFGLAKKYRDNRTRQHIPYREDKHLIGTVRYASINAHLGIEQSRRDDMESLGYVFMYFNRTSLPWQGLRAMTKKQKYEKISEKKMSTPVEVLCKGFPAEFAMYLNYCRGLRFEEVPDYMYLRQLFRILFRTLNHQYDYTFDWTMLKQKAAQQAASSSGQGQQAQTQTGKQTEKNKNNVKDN

Question: How did the residual activity [1] turn out when `COc1cccc(CNC(=O)c2nc3scc(COCc4ccc(C(=O)O)cc4)c3c(=O)[nH]2)c1` [T-26c] was run?
Answer: 86.4%

Question: And the residual activity [2]?
Answer: 74.5%

Question: And the residual activity [3]?
Answer: 79.8%

Question: What about the residual activity [4] of the same compound?
Answer: 67.3%

Question: And the residual activity [5]?
Answer: 95.6%

Question: And the residual activity [6]?
Answer: 94.4%

Question: And the residual activity [7]?
Answer: 94.1%

Question: And the residual activity [8]?
Answer: 85.4%

Question: And the residual activity [9]?
Answer: 100%

Question: And the residual activity [10]?
Answer: 80.4%

Question: What about the residual activity [11] of the same compound?
Answer: 91.4%

Question: And the residual activity [12]?
Answer: 79.9%

Question: What about the residual activity [13] of the same compound?
Answer: 94.3%

Question: What about the residual activity [14] of the same compound?
Answer: 83.9%

Question: And the residual activity [15]?
Answer: 93.9%

Question: And the residual activity [16]?
Answer: 76.6%

Question: And the residual activity [17]?
Answer: 69.2%

Question: And the residual activity [18]?
Answer: 86.2%

Question: What about the residual activity [19] of the same compound?
Answer: 83%

Question: And the residual activity [20]?
Answer: 92.3%

Question: What about the residual activity [21] of the same compound?
Answer: 100%

Question: And the residual activity [22]?
Answer: 74.9%

Question: And the residual activity [23]?
Answer: 100%

Question: And the residual activity [24]?
Answer: 92.1%

Question: What about the residual activity [25] of the same compound?
Answer: 87.4%

Question: What about the residual activity [26] of the same compound?
Answer: 85.7%

Question: And the residual activity [27]?
Answer: 93%

Question: What about the residual activity [28] of the same compound?
Answer: 54.1%

Question: What about the residual activity [29] of the same compound?
Answer: 83%

Question: What about the residual activity [30] of the same compound?
Answer: 97.4%

Question: And the residual activity [31]?
Answer: 82.3%

Question: What about the residual activity [32] of the same compound?
Answer: 100%

Question: And the residual activity [33]?
Answer: 100%

Question: What about the residual activity [34] of the same compound?
Answer: 100%

Question: And the residual activity [35]?
Answer: 67.1%

Question: What about the residual activity [36] of the same compound?
Answer: 88.2%

Question: And the residual activity [37]?
Answer: 81.4%

Question: What about the residual activity [38] of the same compound?
Answer: 58.6%

Question: What about the residual activity [39] of the same compound?
Answer: 89.6%

Question: And the inhibition [40]?
Answer: -0.179%

Question: What about the inhibition [41] of the same compound?
Answer: 13.9%

Question: What about the inhibition [42] of the same compound?
Answer: 9.28%

Question: And the inhibition [43]?
Answer: 28.4%

Question: What about the inhibition [44] of the same compound?
Answer: 17.6%

Question: What about the inhibition [45] of the same compound?
Answer: 53.4%
